We go through five molecules from patent publication US4952704A, “Bis-(pyrrolidonyl alkylene) biguanides” (GAF Chemicals Corporation, priority 1989, dated 1990).

As usually defined, the MIC is the least concentration at which growth counts as inhibited. For orientation: solubility means the concentration that dissolves in the medium under given conditions.

In brackets after ≈: the same amount, converted by molar mass. Where two headings read alike, the source gives them in different places.

One series relates to Staph. aur. Kind of series: Minimum inhibitory concentration, Staph. aur. (Gram positive). In kind it is cell-based. As to the method: (§1) The minimum inhibitory concentrations (MIC) against different Gram positive and Gram negative microorganisms, and fungi, were determined and the results are shown in Table 2 below.
The test system of another series is Fungi. Kind of series: Minimum inhibitory concentration, Fungi. In kind it is cell-based. The procedure: as §1
Another series relates to Ps. aer. Kind of series: Minimum inhibitory concentration, Ps. aer. (Gram negative). It counts as cell-based. As to the method:
as §1

The test system of a further series is E. Coli. Kind of series: Minimum inhibitory concentration, E. Coli (Gram negative). In kind it is cell-based. The settings on record: Escherichia coli. As to the method:
as §1

Another series has as its system Strept. py. Kind of series: Minimum inhibitory concentration, Strept. py. (Gram positive). It counts as cell-based. The procedure: as §1
The next series has as its system bacterial spores. To be noted: room temperature; cited from earlier work.
The test system of the next series is bacteria. The settings on record: cited from earlier work.
The conditions of series [1]: cited from earlier work.
The nature of series [2]: Solubility in Water (Table 1). In kind it is physicochemical. From the text:
The results in Table I below illustrates the water solubility of the free base and hydrochloride salts of the invention versus chlorhexidine.

The conditions of series [3]: cited from earlier work. This is another data set of the same source.
Setting [4] is: HCl salt, pH 5.5, read-out: Solubility in water, HCl Salt (pH 5.5).
The mark [5] stands for this setting: free base, pH 8.5, read-out: Solubility in water, Free Base (pH 8.5).

As to `N=C(NCCCCCCNC(=N)NC(=N)Nc1ccc(Cl)cc1)NC(=N)Nc1ccc(Cl)cc1` [Chlorhexidine gluconate, reference compound], the MIC in the series with Staph. aur. was 2.5 µg/mL; against Fungi, above 200 µg/mL; with Ps. aer., 50 µg/mL; against E. Coli, 5 µg/mL; in the series with Strept. py. it was 5 µg/mL.
In the case of `[H]/N=C(\N/C(=N/[H])NCCCCCCNC(=N)NC(=N)Nc1ccc(Cl)cc1)Nc1ccc(Cl)cc1` [Chlorhexidine, 1,6-bis(4-chlorophenylbiguanido)-hexane], the “activity against bacterial spores” value in the series on bacterial spores is given as “inactivity against bacterial spores”. Moreover, the “antibacterial activity at low pH” value with bacteria (pH below 5) is given as “deteriorates”. The “antibacterial activity, pH dependence” value with bacteria (pH range 5-8) is given as “pH dependent”. In addition, the “compatibility in formulations containing surface active agents” value in [1] was “incompatability”. Moreover, the solubility in [2] (setting [4]) came out at 18 mg/mL; in [2] (setting [5]) it was 0.08 mg/mL (≈ 158 µM). Further, the “water solubility for the free base” value in series [3] is given as “low water solubility”.
With `N=C(NCCCCCCNC(=N)NC(=N)NCCN1CCCC1=O)NC(=N)NCCN1CCCC1=O` [Ex. 4, 1,6-Bis[1-(2-Pyrrolidonylethyl)biguanido]hexane:2HCl], the MIC against Staph. aur. is at most 100 µg/mL; with Fungi it was 100 µg/mL; in the series on Ps. aer., 250 µg/mL; in the series with E. Coli it was 250 µg/mL; in the series with Strept. py., at most 50 µg/mL. For the same molecule, the solubility in series [2] (setting [4]) was 500 mg/mL; in series [2] (setting [5]) it was 50 mg/mL.
`N=C(NCCCCCCCCCCCCNC(=N)NC(=N)NCCN1CCCC1=O)NC(=N)NCCN1CCCC1=O` [Ex. 5, 1,12-Bis[1-(2-Pyrrolidonylethyl)biguanido]dodecane:2HCl]: the MIC in the series on Staph. aur. was at most 50 µg/mL; in the series on Fungi, at most 50 µg/mL; in the series with Ps. aer., above 500 µg/mL; with E. Coli it was 250 µg/mL; against Strept. py., at most 50 µg/mL. In addition, the solubility in series [2] (setting [4]) was 500 mg/mL; in series [2] (setting [5]), 20 mg/mL.
For `N=C(NCCOCCOCCNC(=N)NC(=N)NCCN1CCCC1=O)NC(=N)NCCN1CCCC1=O` [Ex. 6, 1,2-Bis[1-(2-pyrrolidonylethyl)-5-(2-Ethoxybiguanido)]ethane:2HCl], the MIC was above 500 µg/mL with Staph. aur.; at most 50 µg/mL in the series with Fungi; at most 100 µg/mL with Ps. aer.; 100 µg/mL against E. Coli; at most 50 µg/mL with Strept. py.. The solubility in series [2] (setting [4]) and in [2] (setting [5]) was 500 mg/mL each time.
